{"source": "patent US20230090255A1", "about": "“MAGL INHIBITOR, PREPARATION METHOD THEREFOR AND USE THEREOF” (LUNAN PHARMACEUTICAL GROUP CORPORATION, priority 2019, published 2023)", "key": {"[1]": {"test_system": "mice forced swimming test", "assay": "Mice forced swimming test", "format": "in vivo, ICR mice", "conditions": "for Accumulated immobility time: forced swimming, 6 min, 5 mg/kg intragastric once per day 10 d, 1 h after final administration", "protocol": "(§1) Male ICR mice having a body weight of 18-22 g. The animals were active on a schedule of normal illumination for 12 h and in the dark for 12 h. Environmental temperature and relative humidity were relatively kept for 22±1° C. and 55±5%.\n(§2) There were 7 groups of laboratory mice, 10 pieces each group, set as a control group (normal saline), a positive control group (fluoxetine hydrochloride capsule, 5 mg/kg), 5 MAGLZ-II series of administration treatment groups: MAGLZ-II-06, MAGLZ-II-07, MAGLZ-II-11, MAGLZ-II-17 and MAGLZ-II-18, respectively, with an administration concentration of 5 mg/kg.\n(§3) All medicaments were used once per day via intragastric administration with a dose of 20 mL/kg (body weight), lasting for 10 d. 1 h later after the final administration, the detection of animal behaviors was started.\nMice forced swimming test was performed according to the method established by Porsolt (Porsolt R D. Behavioural despair in mice: A primary screening test for antidepressants[J]. Arch. Int. Pharmacolodyn. 1977, 229). […] Each mouse was judged as still when stopped struggling, kept suspension in water and only made necessary movement to keep the head above the water.\n(§4) All data are shown by x̅±SD, and the comparison among groups is analyzed by one-way variance."}, "[2]": {"test_system": "mice tail suspension test", "assay": "Mice tail suspension test", "format": "in vivo, ICR mice", "conditions": "final 4 min of 6 min, 5 mg/kg intragastric once per day 10 d", "protocol": "as §1, §2, §3\nThe tail suspension test (TST) was performed by the method established by Porsolt, et al. (Porsolt R D, Le Pichon M, Jalfre M. Depression: a new animal model sensitive to antidepressant treatments[J]. Nature, 1977, 266(5604):730-732). Mice were respectively suspended on the tail portions with tail suspension clamps at a distance of 10 mm away from the tail portion of the box (250 mm×250 mm×300 mm) and a distance of 5 cm where the head of each mouse was away from the bottom portion. Noise was tested in a dark room having minimum background, and each mouse was suspended for 6 min, and an immobility time was recorded at intervals in the final 4 min. Judgment standard: the mice stopped struggling and kept still completely.\nas §4"}, "[3]": {"molecular_target": "T1, recombinant human protein MAGL (Homo sapiens, UniProt Q99685)", "T1 construct": "purchased Cayman", "T1 sequence (Q99685 1-303)": "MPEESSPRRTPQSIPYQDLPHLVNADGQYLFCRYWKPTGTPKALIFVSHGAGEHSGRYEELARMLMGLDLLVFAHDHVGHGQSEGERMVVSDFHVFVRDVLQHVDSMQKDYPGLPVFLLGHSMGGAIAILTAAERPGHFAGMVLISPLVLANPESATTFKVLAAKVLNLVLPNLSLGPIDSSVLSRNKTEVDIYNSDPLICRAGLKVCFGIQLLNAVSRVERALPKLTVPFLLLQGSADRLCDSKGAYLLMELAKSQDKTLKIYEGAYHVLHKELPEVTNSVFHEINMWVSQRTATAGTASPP", "assay": "MAGL enzyme analysis (Cayman MAGL inhibitor screening kit)", "format": "biochemical", "conditions": "4-nitrophenylacetic acid substrate, absorbance 410 nm, read-out: MAGLXIC50", "protocol": "150 µL 1Xassay buffer, 10 µL recombinant human protein MAGL and 10 µL different concentrations of MAGL inhibitors (six points within 1 nM to 1000 nM) were added to per well of a 96-well plate. JZL195 (a positive control inhibitor) served as a positive control well, after incubation for 5 min at room temperature, per well was added with 10 µL MAGL substrate, and […] were vibrated for 10 s and placed for 10 min at room temperature, then an absorbance was detected at 410 nm. […] Graphad Prism 5.0 was taken to calculate IC50 curves fitting each inhibitor."}, "[4]": {"assay": "Tissue distribution test in mice", "format": "in vivo", "design": "content in the brain (tissue distribution): unit not given here", "conditions": "16 mg/kg subcutaneous injection"}, "[5]": {"test_system": "reserpine-induced mice depression", "assay": "Reserpine-induced mice depression", "format": "in vivo, ICR mouse", "design": "Awakening / Finger contact / Head touch / Fear / Autonomic activity / Eyelid closure / Upright: scale not given here", "conditions": "for Eyelid closure: 2 h after reserpine 4 mg/kg", "protocol": "• Species: ICR mouse • Microbiological level: SPF • Quantity and sex of the animals purchased: male: 75; female: 75 • Quantity and sex of the animals used: male: 75; female: 75 • Body weight: 13-18 g when accepted\nGroup design: there were 50 pieces for each batch of animals and 3 batches in total; each batch of animals were randomly divided into 5 groups; low, middle and high-dose groups of the samples for test, blank control group and model group; a sample for test was tested per batch.\n3.1 Animals were administrated via subcutaneous injection per day with doses of 4, 8 and 16 mg/kg for 6 d in total. 2 h later after the final administration, each animal was subcutaneously injected with 4 mg/kg reserpine except the blank control group; afterwards, indicators, such as, awakening, finger contact, fear, head touch, autonomic activity, upright and eyelid closure were determined 2 h later.\nData statistics and analysis were completed via a computer by SPSS 17.0 software and office 2016, and data statistics was inspected by Kruskal-Wallis. If the Kruskal-Wallis inspection result is significant ((P<0.05), multiple comparison inspection is further performed by a Mann-Whitney U nonparametric test method."}}, "note": "Where a name gives a salt, the structure may show the parent alone.", "data": [{"smiles": "CNCCC(Oc1ccc(C(F)(F)F)cc1)c1ccccc1", "note": "(stereo not drawn) [Fluoxetine hydrochloride capsule, Fluoxetine hydrochloride, reference compound]", "values": [{"measurement": "accumulated immobility time of mice forced swimming test, in words", "setting": "[1]; 5 mg/kg intragastric 10 d, P<0.05", "result": "obviously shorten"}, {"measurement": "Accumulated immobility time", "setting": "[1]", "result": "92.64±29.17", "unit": "S"}, {"measurement": "Accumulated immobility time", "setting": "[2]", "result": "92.19±23.63", "unit": "S"}]}, {"smiles": "O=C(Nc1cccc(O)c1)C1CCN(C(=O)c2ccc(Cl)cc2)CC1", "note": "[MAGLZ-II-06]", "values": [{"measurement": "Accumulated immobility time", "setting": "[1]", "result": "89.23±46.37", "unit": "S"}, {"measurement": "Accumulated immobility time", "setting": "[2]", "result": "90.73±30.51", "unit": "S"}]}, {"smiles": "COc1cccc(C(=O)N2CCC(C(=O)Nc3ccc(Cl)cc3)CC2)c1", "note": "[MAGLZ-II-07]", "values": [{"measurement": "Accumulated immobility time", "setting": "[1]", "result": "91.31±41.85", "unit": "S"}, {"measurement": "Accumulated immobility time", "setting": "[2]", "result": "89.66±31.52", "unit": "S"}]}, {"smiles": "O=C(Nc1cccc(Cl)c1)C1CCN(C(=O)c2ccc3ccccc3c2)CC1", "note": "[MAGLZ-II-17]", "values": [{"measurement": "IC50", "setting": "[3]", "result": 15, "unit": "nM"}, {"measurement": "content in the brain, ranking of the test substances", "setting": "[4]", "result": "ranking the second"}, {"measurement": "content in the brain (tissue distribution)", "setting": "[4]; 1.0 h", "result": 2.9}, {"measurement": "content in the brain (tissue distribution)", "setting": "[4]; 2.0 h", "result": 9.4}, {"measurement": "content in the brain (tissue distribution)", "setting": "[4]; 5.0 h", "result": 4.8}, {"measurement": "effect on reserpine-induced depression (conclusion)", "setting": "[5]; 4, 8 and 16 mg/kg sc 6 d", "result": "may enhance the effect"}, {"measurement": "Eyelid closure", "setting": "[5]; high dose 16 mg/kg sc 6 d", "result": "0.25±0.66"}, {"measurement": "Eyelid closure", "setting": "[5]; low dose 4 mg/kg sc 6 d", "result": "2.25±0.66"}, {"measurement": "Eyelid closure", "setting": "[5]; middle dose 8 mg/kg sc 6 d", "result": "1±1.00"}, {"measurement": "Accumulated immobility time", "setting": "[1]", "result": "79.38±41.67", "unit": "S"}, {"measurement": "Accumulated immobility time", "setting": "[2]", "result": "89.87±29.68", "unit": "S"}]}]}
